From patent publication US11224628B2, “Method for extraction of an agent from a plant source” (Yissum Research Development Company of the Hebrew …, priority 2017, dated 2022)

Assay: Self-diffusion NMR (SD-NMR) diffusion coefficients of the components of the AX-loaded medium
Format: physicochemical
Settings: 0.5 wt % AX-loaded medium
Method: In order to determine the structure of the oil droplets (or micelles) of the medium, self-diffusion NMR analysis was carried out. SD-NMR is able to locate each component within the medium via measurements of its diffusion coefficient.
NMR measurements were performed with a Bruker AVII 500 spectrometer equipped with GREAT 1/10 gradients, a 5 mm BBO and a 5 mm BBI probe, both with a z-gradient coil and with a maximum gradient strength of 0.509 and 0.544 Tm^−1, respectively. Diffusion was measured using an asymmetric bipolar longitudinal eddy-current delay (bpLED) experiment, or an asymmetric bipolar stimulated echo (known as one-shot) experiment with convection compensation and an asymmetry factor of 20%, ramping the strongest gradient from 2% to 95% of maximum strength in 32 steps. The spectrum was processed with the Bruker TOPSPIN software. NMR spectra were recorded at 25±0.2° C. The components were identified by their chemical shift in 1H NMR.

| SMILES | Diffusion coefficient (water content 0 wt %) | Diffusion coefficient (water content 10 wt %) | Diffusion coefficient (water content 20 wt %) | Diffusion coefficient (water content 30 wt %) | Diffusion coefficient (water content 40 wt %) | Diffusion coefficient (water content 50 wt %) | Diffusion coefficient (water content 60 wt %) | Diffusion coefficient (water content 70 wt %) | Diffusion coefficient (water content 80 wt %) | Diffusion coefficient (water content 90 wt %) |
| --- | --- | --- | --- | --- | --- | --- | --- | --- | --- | --- |
| CC1=C(/C=C/C(C)=C/C=C/C(C)=C/C=C/C=C(C)/C=C/C=C(C)/C=C/C2=C(C)C(=O)[C@@H](O)CC2(C)C)C(C)(C)C[C@H](O)C1=O [AX, astaxanthin] | 4.7 × 10^−12 m^2/sec | 3 × 10^−12 m^2/sec | 1.4 × 10^−12 m^2/sec | 3 × 10^−13 m^2/sec | 3 × 10^−13 m^2/sec | 7 × 10^−13 m^2/sec | 1.4 × 10^−12 m^2/sec | 4.8 × 10^−12 m^2/sec | 1.12 × 10^−11 m^2/sec |  |
| CCO [EtOH, Ethanol] | 4.13 × 10^−11 m^2/sec | 4.66 × 10^−11 m^2/sec | 4.78 × 10^−11 m^2/sec | 8.67 × 10^−11 m^2/sec | 1.2 × 10^−10 m^2/sec | 1.7 × 10^−10 m^2/sec | 2.33 × 10^−10 m^2/sec | 3.32 × 10^−10 m^2/sec | 4.67 × 10^−10 m^2/sec | 5.89 × 10^−10 m^2/sec |
| [2H]O[2H] [Formulation D2O, D2O] |  | 3.1 × 10^−11 m^2/sec | 2.84 × 10^−11 m^2/sec | 3.2 × 10^−12 m^2/sec | 1.3 × 10^−12 m^2/sec | 2.69 × 10^−11 m^2/sec | 7.96 × 10^−10 m^2/sec | 9.1 × 10^−10 m^2/sec | 1.16 × 10^−9 m^2/sec | 1.48 × 10^−09 m^2/sec |
| CC(O)CO (stereo not shown) [PG, Propylene glycol] | 4.43 × 10^−11 m^2/sec | 4.78 × 10^−11 m^2/sec | 4.86 × 10^−11 m^2/sec | 8.69 × 10^−11 m^2/sec | 1.23 × 10^−10 m^2/sec | 1.75 × 10^−10 m^2/sec | 2.41 × 10^−10 m^2/sec | 3.35 × 10^−10 m^2/sec | 4.67 × 10^−10 m^2/sec | 6.03 × 10^−10 m^2/sec |

More lines, now with the values ahead:

| Diffusion coefficient (water content 0 wt %) | Diffusion coefficient (water content 10 wt %) | Diffusion coefficient (water content 20 wt %) | Diffusion coefficient (water content 30 wt %) | Diffusion coefficient (water content 40 wt %) | Diffusion coefficient (water content 50 wt %) | Diffusion coefficient (water content 60 wt %) | Diffusion coefficient (water content 70 wt %) | Diffusion coefficient (water content 80 wt %) | Diffusion coefficient (water content 90 wt %) | SMILES |
| --- | --- | --- | --- | --- | --- | --- | --- | --- | --- | --- |
| 5.46 × 10^−11 m^2/sec | 3.09 × 10^−11 m^2/sec | 2.36 × 10^−11 m^2/sec | 3.2 × 10^−12 m^2/sec | 1.4 × 10^−12 m^2/sec | 1.4 × 10^−12 m^2/sec | 3.1 × 10^−12 m^2/sec | 5.7 × 10^−12 m^2/sec | 1.10 × 10^−11 m^2/sec | 1.91 × 10^−11 m^2/sec | C=C(C)[C@H]1CC=C(C)CC1 [R-(+)-limonene, R-(+)-Limonene] |
| 4.5 × 10^−12 m^2/sec | 3.5 × 10^−12 m^2/sec | 2.9 × 10^−12 m^2/sec | 6 × 10^−13 m^2/sec | 4 × 10^−13 m^2/sec | 9 × 10^−13 m^2/sec | 2.2 × 10^−12 m^2/sec | 5.3 × 10^−12 m^2/sec | 1.05 × 10^−11 m^2/sec | 1.91 × 10^−11 m^2/sec | CCCCCCCC/C=C\CCCCCCCC(=O)OCCOCC(OCCO)C1OCC(OCCO)C1OCCO (stereo not shown) [Tween 80, Polysorbate 80] |
